Source: patent publication US20240226125A1, “USE OF SOTAGLIFLOZIN FOR THE TREATMENT OF PATIENTS WITH TYPE 1 DIABETES MELLITUS” (priority 2019, published 2024)

Experiments:
[1] = test system: adult patients with Type 1 Diabetes Mellitus who have inadequate glycemic control with insulin therapy; test: inTandem 1 and inTandem 2 pooled double-blind placebo-controlled clinical studies, efficacy; type: in vivo, human; details: for 2-hour postprandial plasma glucose (mg/dL) LS Mean Difference (SE) / A1C (%) LS Mean Difference (SE) / Body weight (kg) LS Mean Difference (SE) / DDS2 (score) LS Mean Difference (SE) / DTSQ (score) LS Mean Difference (SE) / Fasting plasma glucose (mg/dL) LS Mean Difference (SE) / SBP (mmHg) LS Mean Difference (SE) / Time in range (%) LS Mean Difference (SE): 400 mg vs placebo; for HbA1c change from Baseline, Week 24 Treatment Comparison, LS Mean / HbA1c change from Baseline, Week 52 Treatment Comparison, LS Mean: optimized insulin
[2] = test system: patients with type 1 diabetes; details: phase II trials; cited from earlier work
[3] = 200 mg, Baseline BMI ≥27 kg/m^2, Week 24
[4] = 200 mg, Baseline BMI ≥27 kg/m^2, Week 52
[5] = Baseline BMI <27 kg/m^2, Week 24
[6] = Baseline BMI <27 kg/m^2, Week 52
[7] = Baseline BMI ≥27 kg/m^2, Week 24
[8] = Baseline BMI ≥27 kg/m^2, Week 52
[9] = 400 mg, Baseline BMI <27 kg/m^2, Week 24
[10] = 400 mg, Baseline BMI <27 kg/m^2, Week 52
[11] = 400 mg, Baseline BMI ≥27 kg/m^2, Week 24
[12] = 400 mg, Baseline BMI ≥27 kg/m^2, Week 52

Compound: CCOc1ccc(Cc2cc([C@@H]3O[C@H](SC)[C@@H](O)[C@H](O)[C@H]3O)ccc2Cl)cc1 [sotagliflozin, (2S,3R,4R,5S,6R)-2-(4-chloro-3-(4-ethoxybenzyl)phenyl)-6-(methylthio)tetrahydro-2H-pyran-3,4,5-triol]
- Body weight (kg) LS Mean change (SE) [1, 3]: −1.93 (0.196) kg
- DDS2 (score) LS Mean change (SE) [1, 3]: −0.5 (0.10) score
- DTSQ (score) LS Mean change (SE) [1, 3]: 2.3 (0.26) score
- Fasting plasma glucose (mg/dL) LS Mean change (SE) [1, 3]: −9.3 (3.33) mg/dL
- SBP (mmHg) LS Mean change (SE) [1, 3]: −2.9 (0.64) mmHg
- Time in range (%) LS Mean change (SE) [1, 3]: 6.254 (2.1983) %
- A1C (%) LS Mean change (SE) [1, 4]: −0.24 (0.041) %
- Body weight (kg) LS Mean change (SE) [1, 4]: −2.16 (0.254) kg
- SBP (mmHg) LS Mean change (SE) [1, 4]: −1.7 (0.66) mmHg
- 2-hour postprandial plasma glucose (mg/dL) LS Mean Difference (SE) [1, 5]: −86.1 (21.27) mg/dL
- A1C (%) LS Mean Difference (SE) [1, 5]: −0.27 (0.063) %
- Body weight (kg) LS Mean Difference (SE) [1, 5]: −2.55 (0.243) kg
- DDS2 (score) LS Mean Difference (SE) [1, 5]: −0.5 (0.16) score
- DTSQ (score) LS Mean Difference (SE) [1, 5]: 1.5 (0.43) score
- Fasting plasma glucose (mg/dL) LS Mean Difference (SE) [1, 5]: −16.4 (5.78) mg/dL
- SBP (mmHg) LS Mean Difference (SE) [1, 5]: −3.5 (0.98) mmHg
- Time in range (%) LS Mean Difference (SE) [1, 5]: 6.335 (3.8492) %
- A1C (%) LS Mean Difference (SE) [1, 6]: −0.21 (0.079) %
- Body weight (kg) LS Mean Difference (SE) [1, 6]: −2.41 (0.324) kg
- SBP (mmHg) LS Mean Difference (SE) [1, 6]: −3.7 (1.08) mmHg
- 2-hour postprandial plasma glucose (mg/dL) LS Mean Difference (SE) [1, 7]: −21.7 (13.93) mg/dL
- A1C (%) LS Mean Difference (SE) [1, 7]: −0.45 (0.045) %
- Body weight (kg) LS Mean Difference (SE) [1, 7]: −3.32 (0.270) kg
- DDS2 (score) LS Mean Difference (SE) [1, 7]: −0.7 (0.13) score
- DTSQ (score) LS Mean Difference (SE) [1, 7]: 2.6 (0.35) score
- Fasting plasma glucose (mg/dL) LS Mean Difference (SE) [1, 7]: −25.0 (4.53) mg/dL
- SBP (mmHg) LS Mean Difference (SE) [1, 7]: −2.5 (0.87) mmHg
- Time in range (%) LS Mean Difference (SE) [1, 7]: 15.051 (2.8562) %
- A1C (%) LS Mean Difference (SE) [1, 8]: −0.38 (0.055) %
- Body weight (kg) LS Mean Difference (SE) [1, 8]: −4.46 (0.353) kg
- SBP (mmHg) LS Mean Difference (SE) [1, 8]: −3.6 (0.89) mmHg
- 2-hour postprandial plasma glucose (mg/dL) LS Mean change (SE) [1, 9]: −69.6 (17.34) mg/dL
- A1C (%) LS Mean change (SE) [1, 9]: −0.34 (0.048) %
- Body weight (kg) LS Mean change (SE) [1, 9]: −1.91 (0.181) kg
- DDS2 (score) LS Mean change (SE) [1, 9]: −0.4 (0.13) score
- DTSQ (score) LS Mean change (SE) [1, 9]: 1.5 (0.33) score
- Fasting plasma glucose (mg/dL) LS Mean change (SE) [1, 9]: −11.5 (4.32) mg/dL
- SBP (mmHg) LS Mean change (SE) [1, 9]: −3.4 (0.75) mmHg
- Time in range (%) LS Mean change (SE) [1, 9]: 4.164 (2.9683) %
- A1C (%) LS Mean change (SE) [1, 10]: −0.20 (0.057) %
- Body weight (kg) LS Mean change (SE) [1, 10]: −1.72 (0.238) kg
- SBP (mmHg) LS Mean change (SE) [1, 10]: −1.0 (0.81) mmHg
- 2-hour postprandial plasma glucose (mg/dL) LS Mean change (SE) [1, 11]: −39.5 (10.72) mg/dL
- A1C (%) LS Mean change (SE) [1, 11]: −0.50 (0.034) %
- Body weight (kg) LS Mean change (SE) [1, 11]: −2.98 (0.193) kg
- DDS2 (score) LS Mean change (SE) [1, 11]: −0.5 (0.10) score
- DTSQ (score) LS Mean change (SE) [1, 11]: 2.2 (0.26) score
- Fasting plasma glucose (mg/dL) LS Mean change (SE) [1, 11]: −18.6 (3.28) mg/dL
- SBP (mmHg) LS Mean change (SE) [1, 11]: −4.0 (0.64) mmHg
- Time in range (%) LS Mean change (SE) [1, 11]: 13.133 (2.0244) %
- A1C (%) LS Mean change (SE) [1, 12]: −0.38 (0.040) %
- Body weight (kg) LS Mean change (SE) [1, 12]: −3.61 (0.249) kg
- SBP (mmHg) LS Mean change (SE) [1, 12]: −3.2 (0.65) mmHg
- Weight, Percent Change from Baseline at Week 24, Treatment Comparison vs. PBO LS Mean (SE) ([1]; SOTA 200 mg vs PBO, Week 24): −2.17 (0.188), p < 0.001%
- HbA1c change from Baseline, Week 24 Treatment Comparison, LS Mean ([1]; SOTA 200 mg vs PBO, Week 24): −0.36%
- No Weight Gain at Week 52, HbA1c <7.0%: Absolute difference in % (SOTA vs. PBO) ([1]; SOTA 200 mg vs PBO, Week 52): 12.6%
- No Weight Gain at Week 52, reduction in HbA1c ≥0.5%: Absolute difference in % (SOTA vs. PBO) ([1]; SOTA 200 mg vs PBO, Week 52): 14.9%
- Weight, Percent Change from Baseline at Week 52, Treatment Comparison vs. PBO LS Mean (SE) ([1]; SOTA 200 mg vs PBO, Week 52): −3.21 (0.291), p < 0.001%
- HbA1c change from Baseline, Week 52 Treatment Comparison, LS Mean ([1]; SOTA 200 mg vs PBO, Week 52): −0.23%
- Weight, Percent Change (%) from Baseline at Week 24, LS Mean (SE) ([1]; SOTA 200 mg, Week 24): −1.70 (0.137), p < 0.001%
- No Weight Gain at Week 52: Percentage HbA1c <7.0% ([1]; SOTA 200 mg, Week 52): 21.8%
- No Weight Gain at Week 52: Percentage with absolute reduction in HbA1c ≥0.5% ([1]; SOTA 200 mg, Week 52): 23.7%
- Weight, Percent Change (%) from Baseline at Week 52, LS Mean (SE) ([1]; SOTA 200 mg, Week 52): −2.31 (0.208), p < 0.001%
- Weight, Percent Change from Baseline at Week 24, Treatment Comparison vs. PBO LS Mean (SE) ([1]; SOTA 400 mg vs PBO, Week 24): −3.02 (0.188), p < 0.001%
- HbA1c change from Baseline, Week 24 Treatment Comparison, LS Mean ([1]; SOTA 400 mg vs PBO, Week 24): −0.38%
- No Weight Gain at Week 52, HbA1c <7.0%: Absolute difference in % (SOTA vs. PBO) ([1]; SOTA 400 mg vs PBO, Week 52): 17.0%
- No Weight Gain at Week 52, reduction in HbA1c ≥0.5%: Absolute difference in % (SOTA vs. PBO) ([1]; SOTA 400 mg vs PBO, Week 52): 20.0%
- Weight, Percent Change from Baseline at Week 52, Treatment Comparison vs. PBO LS Mean (SE) ([1]; SOTA 400 mg vs PBO, Week 52): −4.24 (0.291), p < 0.001%
- HbA1c change from Baseline, Week 52 Treatment Comparison, LS Mean ([1]; SOTA 400 mg vs PBO, Week 52): −0.32%
- Weight, Percent Change (%) from Baseline at Week 24, LS Mean (SE) ([1]; SOTA 400 mg, Week 24): −2.55 (0.137), p < 0.001%
- No Weight Gain at Week 52: Percentage HbA1c <7.0% ([1]; SOTA 400 mg, Week 52): 26.1%
- No Weight Gain at Week 52: Percentage with absolute reduction in HbA1c ≥0.5% ([1]; SOTA 400 mg, Week 52): 28.8%
- Weight, Percent Change (%) from Baseline at Week 52, LS Mean (SE) ([1]; SOTA 400 mg, Week 52): −3.33 (0.209), p < 0.001%
- efficacy of sotagliflozin versus placebo by BMI subgroup ([1]; Week 24, BMI ≥27 kg/m^2 subgroups, A1C, body weight, time in range, DTSQ, DDS2): more pronounced
- A1C levels compared to placebo (primary endpoint) ([1]; both doses, after core treatment period and long-term extension period): statistically significant lower A1C levels
- glycemic control (reduction in A1C) [2]: significantly improve glycemic control
